Assay results from patent publication US20150031541A1 (priority 2012, published 2015).

System: Plasmopara viticola
Experiment: Plasmopara viticola/Grape/Curative (Grape Downy Mildew)
Type: in vivo
Details: 200 ppm; grape seedlings cv. Gutedel, inoculated one day before application; compared to untreated
Experimental: Plasmopara viticola/Grape/Curative (Grape Downy Mildew)
5-week-old grape seedlings cv. Gutedel are inoculated by spraying a sporangia suspension on their lower leaf surface one day before application. The inoculated grape plants are sprayed in a spray chamber with the formulated test compound diluted in water. The inoculated test plants are incubated at 22° C. and 100% rh in a greenhouse and the percentage leaf area covered by disease is assessed when an appropriate level of disease appears on untreated check plants (4-6 days after application).

SMILES: CSC1CN(C(=O)Cn2nc(C(F)F)cc2C(F)F)CCC1c1nc(C2=NOC(c3c(F)cccc3F)C2)cs1 (stereo not shown) [I.az.223, 2-[3,5-bis(difluoromethyl)pyrazol-1-yl]-1-[4-[4-[5-(2,6-difluorophenyl)-4,5-dihydroisoxazol-3-yl]thiazol-2-yl]-3-methylsulfanyl-1-piperidyl]ethanone]
- disease control: at least 80%
